Assays:
S. marcescens No. 16-2* = assay: in vitro antibacterial activity, agar plate dilution method; type: cell-based; conditions: Serratia marcescens; 10^6 CFU/ml; β-Lactamase-producing strain; 37° C., 16 hours; read-out: MIC
Summary of the method: (§1)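 Overnight Mueller Hinton broth cultures were loop-inoculated onto Mueller Hinton agar containing serial antibiotic concentrations. After 16 h at 37 °C, the MIC (μg/ml) was read.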

Ps. cepacia 23 = assay: as above; type: cell-based; conditions: Burkholderia cepacia, 23; 10^6 CFU/ml; Mueller Hinton agar, 37° C., 16 hours; read-out: MIC
Summary of the method: as §1

K. oxytoca GN10650* = assay: as above; type: cell-based; conditions: Klebsiella oxytoca, GN10650, 16 h
Summary of the method: as §1

E. cloacae 963 = assay: as above; type: cell-based; conditions: Enterobacter cloacae, 963, 16 h
Summary of the method: as §1

Ps. aeruginosa AK 109 = assay: as above; type: cell-based; conditions: Pseudomonas aeruginosa, AK109; 10^6 CFU/ml; Mueller Hinton agar, 37° C., 16 hours; read-out: MIC
Summary of the method: as §1

E. coli CSH(RE45)* = assay: as above; type: cell-based; conditions: Escherichia coli; 10^6 CFU/ml; β-Lactamase-producing strain; 37° C., 16 hours; read-out: MIC
Summary of the method: as §1

E. coli NIHJ JC2 = assay: as above; type: cell-based; conditions: Escherichia coli, NIHJJC2; 10^6 CFU/ml; Mueller Hinton agar, 37° C., 16 hours; read-out: MIC
Summary of the method: as §1

E. coli GN5482* = assay: as above; type: cell-based; conditions: Escherichia coli, GN5482, 16 h
Summary of the method: as §1

Ps. aeruginosa AKR17 = assay: as above; type: cell-based; conditions: Pseudomonas aeruginosa, AKR17, 16 h
Summary of the method: as §1

M. morganii GN5407* = assay: as above; type: cell-based; conditions: Morganella morganii, GN5407, 16 h
Summary of the method: as §1

E. cloacae Nek 39* = assay: as above; type: cell-based; conditions: Enterobacter cloacae, 16 h
Summary of the method: as §1

K. pneumoniae PC1-602 = assay: as above; type: cell-based; conditions: Klebsiella pneumoniae, PC1602; 10^6 CFU/ml; Mueller Hinton agar, 37° C., 16 hours; read-out: MIC
Summary of the method: as §1

P. vulgaris No. 33* = assay: as above; type: cell-based; conditions: Proteus vulgaris; 10^6 CFU/ml; β-Lactamase-producing strain; 37° C., 16 hours; read-out: MIC
Summary of the method: as §1

K. pneumoniae No. 42* = assay: as above; type: cell-based; conditions: Klebsiella pneumoniae, 16 h
Summary of the method: as §1

E. coli CSH2(RK1)* = assay: as above; type: cell-based; conditions: Escherichia coli, 16 h
Summary of the method: as §1

Ps. aeruginosa IFO3445 = assay: as above; type: cell-based; conditions: Pseudomonas aeruginosa, IFO3445, 16 h
Summary of the method: as §1

S. aureus 209P NIHJ-JC1 = assay: as above; type: cell-based; conditions: Staphylococcus aureus; 10^6 CFU/ml; Mueller Hinton agar, 37° C., 16 hours; read-out: MIC
Summary of the method: as §1

P. vulgaris HX-19 = assay: as above; type: cell-based; conditions: Proteus vulgaris, HX19, 16 h
Summary of the method: as §1

S. marcescens IAM 1184 = assay: as above; type: cell-based; conditions: Serratia marcescens, IAM1184, 16 h
Summary of the method: as §1

A. calcoaceticus No. 4 = assay: as above; type: cell-based; conditions: Acinetobacter calcoaceticus, NO.4, 16 h
Summary of the method: as §1

[1] = concentration in blood after subcutaneous administration to mice (paper disk method, Morganella morganii IFO 3843); type: in vivo, mice (ddY, male); conditions: mouse, sc, 20 mg/kg subcutaneous
Description: As a representative example, the compound of Example 15 was administered to mice by means of subcutaneous administration, and the concentration in the blood was measured. […] The test compound was dissolved in a physiological sodium chloride solution to obtain a formulation having a concentration of 2 mg/ml. […] Now, Ceftazidime was used as a comparative compound. Further, the antibacterial activities of the sample diluted by plasma to have an appropriate concentration were measured by the paper disk method using Morganella morganii IFO 3843 as the test bacterium.

Work on `C=C(O/N=C(\C(=O)N[C@@H]1C(=O)N2C(C(=O)O)=C(CSc3nc(C(=O)O)c(-c4ccc(O)c(O)c4)s3)CS[C@H]12)c1csc(N)n1)C(=O)O` [Example 15, trisodium 78-[2-(2-aminothiazol-4-yl)-2-(1-carboxylato-1-vinyloxyimino)acetamido]-3-[4-carboxylato-5-(3,4-dihydroxyphenyl)thiazol-2-yl]thiomethyl-3-cephem-4-carboxylate (syn-isomer)] yielded an MIC (S. marcescens No. 16-2*) of 0.78 µg/mL, an MIC (Ps. cepacia 23) of under 0.006 µg/mL and an MIC (K. oxytoca GN10650*) of 0.1 µg/mL. For the same compound, the MIC (E. cloacae 963) was 0.05 µg/mL, the MIC (Ps. aeruginosa AK 109) was 0.78 µg/mL and the MIC (E. coli CSH(RE45)*) was 0.05 µg/mL. The MIC (E. coli NIHJ JC2) was 0.39 µg/mL, the MIC (E. coli GN5482*) was 0.39 µg/mL and the MIC (Ps. aeruginosa AKR17) was 1.56 µg/mL. The MIC (M. morganii GN5407*) was 0.025 µg/mL, the MIC (E. cloacae Nek 39*) was 0.05 µg/mL and the MIC (K. pneumoniae PC1-602) was under 0.006 µg/mL. The MIC (P. vulgaris No. 33*) was under 0.006 µg/mL, the MIC (K. pneumoniae No. 42*) was 0.1 µg/mL and the MIC (E. coli CSH2(RK1)*) was 0.0125 µg/mL. For the same compound, the MIC (Ps. aeruginosa IFO3445) was 1.56 µg/mL, the MIC (S. aureus 209P NIHJ-JC1) was 25 µg/mL and the MIC (P. vulgaris HX-19) was 0.0125 µg/mL. It also gave an MIC (S. marcescens IAM 1184) of 0.05 µg/mL, an MIC (A. calcoaceticus No. 4) of 0.39 µg/mL and a concentration at 0.125 h ([1]; 7.5 min) of 33800 ng/mL. For the same compound, the concentration at 0.25 h ([1]; 15 min) was 45000 ng/mL, the concentration at 0.5 h ([1]; 30 min) was 44300 ng/mL and the concentration at 1 h ([1]; 60 min) was 21900 ng/mL. For the same compound, the concentration at 2 h ([1]; 120 min) was 7100 ng/mL and the concentration at 4 h ([1]; 240 min) was 7200 ng/mL.
